Data: the supplement of paper PMC5412046
Counter-ions that a name gives are not always drawn.

How the values were obtained:
[1] = system: SB.mhdgc-1; experiment: area under the dose-response curve of % viability (trapezoidal, 11 doses) (% viability x log10 concentration); higher = less cytotoxic; conditions: SB.mhdgc-1 (hereditary c.1380delA CDH1 gastric cancer)
How it was run: (§1)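 Compound in DMSO was pinned (23 nL) at 11 threefold-diluted concentrations into wells containing 500 patient-derived gastric cancer cells, hereditary or sporadic, in 5 μL medium per 1536 well. Cells were incubated for 48 h, then exposed to CellTiter-Glo for 30 min at room temperature. Luminescence was measured on a ViewLux. The values are viability normalised to DMSO, either at the highest concentration or as trapezoidal area under the curve.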

[2] = system: SB.msgc-1; experiment: as above; conditions: SB.msgc-1 (sporadic gastric cancer)
How it was run: as §1

[3] = system: SB.mhdgc-1; experiment: viability at highest tested concentration (MAXR) relative to DMSO; higher = less cytotoxic; conditions: SB.mhdgc-1 (hereditary c.1380delA CDH1 gastric cancer)
How it was run: as §1

[4] = system: SB.msgc-1; experiment: as above; conditions: SB.msgc-1 (sporadic gastric cancer)
How it was run: as §1

SMILES: COCCCOc1ccnc(C[S+]([O-])c2nc3ccccc3[n-]2)c1C (centres undefined) [Rabeprazole] (top concentration 46.0829 µM)
- area under the dose-response curve [1]: 545
- area under the dose-response curve [2]: 497
- viability [3]: 68.7%
- viability [4]: 72.4%

SMILES: NC/1=N/[C@]2(COC[C@H]2CS1)C3=CC(=CC=C3F)NC(=O)C4=NC=C(F)C=C4 (top concentration 46.0829 µM)
- area under the dose-response curve [1]: 446
- area under the dose-response curve [2]: 430
- viability [3]: 56.6%
- viability [4]: 34.4%

SMILES: CN1C(=O)\C(=C/C(=C1/NC2=C(F)C=C(I)C=C2)C(=O)NOCCO)C [AZD-8330] (top concentration 46.0829 µM)
- area under the dose-response curve [1]: 374
- area under the dose-response curve [2]: 404
- viability [3]: 46.3%
- viability [4]: 62.7%

SMILES: CN1CCN(CC1)C/2=N/C3=CC=CC=C3NC4=C2C=C(C)S4 [Olanzapine] (top concentration 46.0829 µM)
- area under the dose-response curve [1]: 496
- area under the dose-response curve [2]: 545
- viability [3]: 124%
- viability [4]: 128%

SMILES: OC[C@H]1O[C@H]([C@@H](F)[C@@H]1O)N2\C=C/C(=O)NC2=O (top concentration 46.0829 µM)
- area under the dose-response curve [1]: 538
- area under the dose-response curve [2]: 451
- viability [3]: 46.4%
- viability [4]: 38.1%

SMILES: CCOC(=O)N1c2ccc(C(F)(F)F)cc2[C@@H](N(Cc2cc(C(F)(F)F)cc(C(F)(F)F)c2)C(=O)OC)C[C@H]1CC [Torcetrapib] (top concentration 46.0829 µM)
- area under the dose-response curve [1]: 538
- area under the dose-response curve [2]: 503
- viability [3]: 57.1%
- viability [4]: 60.6%

SMILES: C\C1=C\C(=O)OC2=C1C=CC(=C2)O [4-methylumbelliferone] (top concentration 46.0829 µM)
- area under the dose-response curve [1]: 602
- area under the dose-response curve [2]: 500
- viability [3]: 103%
- viability [4]: 86.3%

SMILES: Nc1ncnc2c1ncn2[C@@H]1O[C@H](CO)[C@@H](O)[C@H]1O [Adenosine] (top concentration 46.0829 µM)
- area under the dose-response curve [1]: 451
- area under the dose-response curve [2]: 454
- viability [3]: 48.9%
- viability [4]: 8.07%

SMILES: C/C(O)=C(\C#N)C(=O)Nc1cc(Br)ccc1Br [LFM-A13] (top concentration 46.0829 µM)
- area under the dose-response curve [1]: 528
- area under the dose-response curve [2]: 536
- viability [3]: 93.3%
- viability [4]: 74%

SMILES: Nc1n[nH]c2nnc(-c3c(-c4ccccc4)nn4ccccc34)cc12 (top concentration 46.0829 µM)
- area under the dose-response curve [1]: 438
- area under the dose-response curve [2]: 445
- viability [3]: 28%
- viability [4]: 14.2%

SMILES: NCC1(CC(=O)O)CCCCC1 [Gabapentin] (top concentration 46.0829 µM)
- area under the dose-response curve [1]: 555
- area under the dose-response curve [2]: 509
- viability [3]: 121%
- viability [4]: 109%

SMILES: CC(=O)Nc1sc2c(c1-c1nc3ccccc3s1)CNC2 (top concentration 46.0829 µM)
- area under the dose-response curve [1]: 297
- area under the dose-response curve [2]: 443
- viability [3]: 26%
- viability [4]: 35.2%

SMILES: CN(C)[C@H]\1[C@@H]2C[C@H]3C(=C(O)\[C@]2(O)C(=O)\C(=C1O)C(N)=O)/C(=O)C4=C(O)C=CC=C4[C@@]3(C)O [Tetracycline hydrochloride] (top concentration 46.0829 µM)
- area under the dose-response curve [1]: 531
- area under the dose-response curve [2]: 566
- viability [3]: 88.8%
- viability [4]: 81.7%

SMILES: C[C@H]1CC2C3CCC/4=C/C(=O)/C=C\[C@]4(C)[C@@]3(F)[C@@H](O)C[C@]2(C)[C@@]1(O)C(=O)CO (some centres undefined) [Betamethasone] (top concentration 46.0829 µM)
- area under the dose-response curve [1]: 512
- area under the dose-response curve [2]: 571
- viability [3]: 60%
- viability [4]: 65.2%

SMILES: COc1cc2c(Nc3ccc(NC(=O)c4ccccc4)cc3)ncnc2cc1OCCCN1CCOCC1 (top concentration 46.0829 µM)
- area under the dose-response curve [1]: 466
- area under the dose-response curve [2]: 519
- viability [3]: 11.7%
- viability [4]: 43.1%

SMILES: C=C1/C(=C\C=C2/CCC[C@]3(C)[C@@H]([C@H](C)CCCC(C)(C)O)CC[C@@H]23)C[C@@H](O)C[C@@H]1O [Calcitriol] (top concentration 46.0829 µM)
- area under the dose-response curve [1]: 437
- area under the dose-response curve [2]: 418
- viability [3]: 40.5%
- viability [4]: 7.21%

SMILES: CC(C)c1ccccc1Cc1cc(C(=O)Nc2ccc([S+](=O)([O-])c3ccccc3C(C)(C)C)cc2)c(O)c(O)c1O [TW-37] (top concentration 46.0829 µM)
- area under the dose-response curve [1]: 498
- area under the dose-response curve [2]: 481
- viability [3]: 24.2%
- viability [4]: 22.5%

SMILES: Cc1nnc(N[S+](=O)([O-])c2ccc(N)cc2)s1 [Sulfamethizole] (top concentration 46.0829 µM)
- area under the dose-response curve [1]: 394
- area under the dose-response curve [2]: 489
- viability [3]: 38.9%
- viability [4]: 3.84%

SMILES: CCN(CC)C(=O)C1=CC=C(C=C1)C/2=C/C3(CCNCC3)OC4=CC=CC(=C24)O [ADL-5859] (top concentration 46.0829 µM)
- area under the dose-response curve [1]: 536
- area under the dose-response curve [2]: 583
- viability [3]: 71.6%
- viability [4]: 96%

SMILES: Cc1cccc(C#Cc2ccccc2)n1 [MPEP] (top concentration 46.0829 µM)
- area under the dose-response curve [1]: 557
- area under the dose-response curve [2]: 607
- viability [3]: 74.4%
- viability [4]: 96.5%

SMILES: Nc1nc(Cl)nc2c1ncn2[C@H]1C[C@H](O)[C@@H](CO)O1 [Cladribine] (top concentration 46.0829 µM)
- area under the dose-response curve [1]: 372
- area under the dose-response curve [2]: 420
- viability [3]: 37%
- viability [4]: 46.6%

SMILES: COc1ccc(C2CNC(=O)C2)cc1OC1CCCC1 (centres undefined) [Rolipram] (top concentration 46.0829 µM)
- area under the dose-response curve [1]: 481
- area under the dose-response curve [2]: 362
- viability [3]: 103%
- viability [4]: 65.6%

SMILES: CC(C(=O)O)c1ccc(-c2ccccc2)c(F)c1 (centres undefined) [Flurbiprofen] (top concentration 46.0829 µM)
- area under the dose-response curve [1]: 438
- area under the dose-response curve [2]: 363
- viability [3]: 31.8%
- viability [4]: 32.6%

SMILES: OC1=CC(=C(C=C1)\C2=C(O)\C(=O)C3=C(O2)C=C(O)C=C3O)O [Morin hydrate] (top concentration 46.0829 µM)
- area under the dose-response curve [1]: 530
- area under the dose-response curve [2]: 516
- viability [3]: 132%
- viability [4]: 105%

SMILES: O=C1Nc2ccc(I)cc2/C1=C/c1cc(Br)c(O)c(Br)c1 [GW-5074] (top concentration 46.0829 µM)
- area under the dose-response curve [1]: 518
- area under the dose-response curve [2]: 453
- viability [3]: 56.2%
- viability [4]: 53.8%

SMILES: C=C(C)[C@@H]1CC[C@]2(C(=O)O)CC[C@]3(C)[C@H](CC[C@@H]4[C@@]5(C)CC[C@H](O)C(C)(C)[C@@H]5CC[C@]43C)[C@@H]12 [Betulinic acid] (top concentration 46.0829 µM)
- area under the dose-response curve [1]: 583
- area under the dose-response curve [2]: 474
- viability [3]: 76.1%
- viability [4]: 48.8%

SMILES: CCC[C@H](Nc1nc(-c2ccc(NC(=O)NCC)c(OC)c2)ncc1C)c1cccnc1 [Lexibulin hydrochloride] (top concentration 46.0829 µM)
- area under the dose-response curve [1]: 257
- area under the dose-response curve [2]: 289
- viability [3]: 39.8%
- viability [4]: 33.9%

SMILES: CC/C=C\C[C@H]1C(=O)CC[C@@H]1CC(=O)OC [methyl jasmonate] (top concentration 46.0829 µM)
- area under the dose-response curve [1]: 523
- area under the dose-response curve [2]: 548
- viability [3]: 102%
- viability [4]: 102%

SMILES: Nc1cc(c(cc1S(=O)(N)=O)S(N)(=O)=O)C(/Cl)=C(/Cl)Cl [Clorsulon] (top concentration 46.0829 µM)
- area under the dose-response curve [1]: 383
- area under the dose-response curve [2]: 525
- viability [3]: 46.3%
- viability [4]: 87.5%

SMILES: Cl.Cl.Cl.O[C@@H](COc1cccc2ncccc12)CN1CCN([C@@H]2c3ccccc3[C@@H]3[C@H](c4ccccc42)C3(F)F)CC1 [Zosuquidar trihydrochloride] (top concentration 46.0829 µM)
- area under the dose-response curve [1]: 416
- area under the dose-response curve [2]: 304
- viability [3]: 3.66%
- viability [4]: 9.33%

SMILES: CO[C@@]12[C@H](COC(N)=O)C/3=C(N1C[C@@H]4N[C@H]24)/C(=O)/C(=C(N)\C3=O)C [Mitomycin] (top concentration 46.0829 µM)
- area under the dose-response curve [1]: 199
- area under the dose-response curve [2]: 362
- viability [3]: 12.4%
- viability [4]: 42.1%

SMILES: C[N+](C)(C)CC(=O)O.[Cl-] [Betaine] (top concentration 46.0829 µM)
- area under the dose-response curve [1]: 426
- area under the dose-response curve [2]: 507
- viability [3]: 46.7%
- viability [4]: 74%

SMILES: C=CC(=O)Nc1cccc(Oc2nc(Nc3ccc(N4CCN(C)CC4)cc3)ncc2Cl)c1 [WZ-3146] (top concentration 46.0829 µM)
- area under the dose-response curve [1]: 391
- area under the dose-response curve [2]: 276
- viability [3]: 3.3%
- viability [4]: 1.38%

SMILES: COC1=CC(=C2C(=O)N(COC/3=C/C(=O)N4\C=C/C=C(OCCN5CCCCC5)\C4=N3)[S+]([O-])(=O)C2=C1)C(C)C (top concentration 46.0829 µM)
- area under the dose-response curve [1]: 475
- area under the dose-response curve [2]: 478
- viability [3]: 2.92%
- viability [4]: 39.7%

SMILES: COc1cc(NC(=O)c2ccc(-c3ccc(Cl)cc3)o2)cc(OC)c1 (top concentration 46.0829 µM)
- area under the dose-response curve [1]: 379
- area under the dose-response curve [2]: 457
- viability [3]: 3.96%
- viability [4]: 3.84%

SMILES: CCN(CC)CCN1C(=O)\C(=N/C2=CC=CC=C12)CC3=CC=C(OC)C=C3 [Caroverine hydrochloride] (top concentration 46.0829 µM)
- area under the dose-response curve [1]: 541
- area under the dose-response curve [2]: 595
- viability [3]: 119%
- viability [4]: 116%
